Literature values, collected in US20010050137A1, “Anti-microbial shoe linings, sock liners, and socks and process for manufacture of same” (priority 1995, published 2001).
Where two headings read alike, the source gives them in different places.

How the values were obtained:
Chaetomium globosum = conditions: ATCC 6205; approx. 10^5 colony-forming units/ml spores; DMSO cosolvent
Aspergillus niger = conditions: ATCC 9542; approx. 10^5 colony-forming units/ml spores; DMSO cosolvent
most algae = conditions: in general
Pityrosporum Ovale = conditions: DMSO cosolvent
Sctonema hofmaannii = conditions: DMSO cosolvent
[1] = tested on: Streptoverticillium reticulum; conditions: ATCC 25607; DMSO cosolvent
[2] = tested on: algae, mold, mildew and bacteria including E-Coli and Salmonella
Chloroccum tetrasporum = conditions: DMSO cosolvent
Fusarium sp. = conditions: approx. 10^5 colony-forming units/ml spores; DMSO cosolvent
[3] = commercial product, typical value
[4] = for Solubility: 25° C.
Trentopholia odorata = conditions: DMSO cosolvent
Candida Albicans = conditions: ATCC 11651; DMSO cosolvent
Penicillium pinophilum = conditions: ATCC 9644; approx. 10^5 colony-forming units/ml spores; DMSO cosolvent
[5] = tested on: most fungi (molds and yeasts); conditions: in general
Synechocystis minima = conditions: DMSO cosolvent
Streptococcus faecalis = conditions: ATCC 19433; approx. 10^6 organisms/ml; DMSO cosolvent
most bacteria = conditions: in general
Gliocladium virens = conditions: ATCC 9645; approx. 10^5 colony-forming units/ml spores; DMSO cosolvent
Escherichia coli = conditions: ATCC 9637; approx. 10^6 organisms/ml; DMSO cosolvent
Klebsiella pheumoniae = conditions: ATCC 4352; approx. 10^6 organisms/ml; DMSO cosolvent
Pseudomonas aeruginosa = conditions: ATCC 9721; approx. 10^6 organisms/ml; DMSO cosolvent
Aureobasidium pullulans = conditions: ATCC 9348; approx. 10^5 colony-forming units/ml spores; DMSO cosolvent
Anacystis montana = conditions: DMSO cosolvent
Staphylococcus aureus = conditions: ATCC 6538; approx. 10^6 organisms/ml; DMSO cosolvent

For `c1cc[n+]2c(c1)[S][Zn-2]1([O]2)[O][n+]2ccccc2[S]1` [Zinc Omadine®, bis[1-hydroxy-2(1H)-pyridinethionato-0,S]-(T-4) zinc], the “Minimum Inhibitory Concentrations” value (Chaetomium globosum) is given as <2 Micrograms/ml (ppm), the “Minimum Inhibitory Concentrations” value (Aspergillus niger) is given as 8 Micrograms/ml (ppm) and the MIC in vitro (most algae) is given as “less than 1 ppm”. The “Minimum Inhibitory Concentrations” value (Pityrosporum Ovale) was 4 Micrograms/ml (ppm), the “Minimum Inhibitory Concentrations” value (Sctonema hofmaannii) was 0.5 Micrograms/ml (ppm) and the “Minimum Inhibitory Concentrations” value [1] was 4 Micrograms/ml (ppm). The “inhibiting the growth of microorganisms” value [2] was “capable of inhibiting the growth”, the “Minimum Inhibitory Concentrations” value (Chloroccum tetrasporum) was 8 Micrograms/ml (ppm) and the “Minimum Inhibitory Concentrations” value (Fusarium sp.) was 32 Micrograms/ml (ppm). For the same compound, the “Heat Stability: time stable” value ([3]; at 100° C.) was “at least 120 hours”, the decomposition temperature [3] was 240 °C and the Solubility ([4]; Castor oil) was less than 0.0001 w/w %. The Solubility ([4]; Chloroform) was 0.3 w/w %, the Solubility ([4]; Diethyleneglycol monoethyl ether) was 0.01 w/w % and the Solubility ([4]; Dimethylsulfoxide) was 4 w/w %. For the same compound, the Solubility ([4]; Ethanol, 40A) was 0.01 w/w %, the Solubility ([4]; Ethyleneglycol monomethyl ether) was 0.09 w/w % and the Solubility ([4]; Isopropanol) was 0.008 w/w %. The Solubility ([4]; Isopropyl myristate) was less than 0.0001 w/w %, the Solubility ([4]; Isopropyl palmitate) was less than 0.0001 w/w % and the Solubility ([4]; Mineral oil, light) was less than 0.0001 w/w %. For the same compound, the Solubility ([4]; Olive oil) was less than 0.0003 w/w %, the Solubility ([4]; Polyethylene glycol 400) was 0.2 w/w % and the Solubility ([4]; Propylene glycol) was 0.02 w/w %. The Solubility ([4]; Water, pH 7, technical grade material, average) was 0.0008 w/w %, the “Solubility in water” value ([4]; water, 95 percent powder form) was “insoluble in water” and the “Minimum Inhibitory Concentrations” value (Trentopholia odorata) was <0.06 Micrograms/ml (ppm). The “Minimum Inhibitory Concentrations” value (Candida Albicans) was <2 Micrograms/ml (ppm), the “Minimum Inhibitory Concentrations” value (Penicillium pinophilum) was <2 Micrograms/ml (ppm) and the MIC in vitro [5] was “less than 5 ppm”. The “Minimum Inhibitory Concentrations” value (Synechocystis minima) was <0.06 Micrograms/ml (ppm), the “Minimum Inhibitory Concentrations” value (Streptococcus faecalis) was 16 Micrograms/ml (ppm) and the MIC in vitro (most bacteria) was “less than 50 ppm”. For the same compound, the “Minimum Inhibitory Concentrations” value (Gliocladium virens) was 64 Micrograms/ml (ppm), the “Minimum Inhibitory Concentrations” value (Escherichia coli) was 8 Micrograms/ml (ppm) and the “Minimum Inhibitory Concentrations” value (Klebsiella pheumoniae) was 8 Micrograms/ml (ppm). For the same compound, the “Minimum Inhibitory Concentrations” value (Pseudomonas aeruginosa) was 512 Micrograms/ml (ppm), the “Minimum Inhibitory Concentrations” value (Aureobasidium pullulans) was <2 Micrograms/ml (ppm) and the “Minimum Inhibitory Concentrations” value (Anacystis montana) was <0.06 Micrograms/ml (ppm). For the same compound, the “Minimum Inhibitory Concentrations” value (Staphylococcus aureus) was 4 Micrograms/ml (ppm).
